Test results published in article PMC9959244, “Revisiting the Solubility–Permeability Relationship with Hydrophobic Drug Umifenovir in Pluronic Solutions: Impact of pH and Co-Solvent” (Pharmaceutics, 2023).
In brackets after ≈: the same amount, converted by molar mass. Where two headings read alike, the source gives them in different places.

Experiments:
[1] = set-up: method as in earlier work; settings: cited from earlier work
[2] = Phase solubility, shake-flask method with UV spectrophotometry; format: physicochemical; settings: for solubility at 3 days: aqueous buffer (shake-flask)
Procedure: The solubility of UMF was measured in pure buffers pH 2.0 and pH 7.4, with the additions of 1.5 w/v%, 4.0 w/v%, 5.5 w/v%, 7.0 w/v% of F-127, and in all these solutions in the presence of 10% and 20% ethanol at 310.15 ± 0.1 K by the standard shake-flask method. The concentrations of F-127 were chosen purposely to avoid the formation of a gel (at approximately 20% w/w in water at 310.15 K). Since the aim of the study was to evaluate the possibility of preparation of pharmaceutical products based on UMF, the experimental temperature was selected to be as very close to the normal temperature of a healthy human. […] The experimental results are presented as an average of at least three replicated experiments.

## CCOC(=O)c1c(CSc2ccccc2)n(C)c2cc(Br)c(O)c(CN(C)C)c12 [UMF, 6-bromo-4-dimethylaminomethyl-5-hydroxy-1-methyl-2-phenylthiomethyl indole-3-carboxylic acid ethyl ester]
[1]
  pKa: 6.0
[2]; 10% EtOH
  Solubility increase by ethanol vs buffer pH 7.4: 1.13 fold
[2]; 20% EtOH
  Solubility increase by ethanol vs buffer pH 7.4: 1.8 fold
[2]; 310.15 K
  Greater solubility in acidic medium (pH 2.0) as compared to alkaline one (pH 7.4): 44.4 fold
[2]; 37 °C, pH 2, aqueous buffer, thermodynamic from solid, Solubility SUMF·103, buffer pH 2.0, 0 w/v% F-127, 310.15 K, value is S×10^3, heading: Solubility SUMF·103
  solubility at 3 days: 710 ± 20 µM (≈ 339 µg/mL)
[2]; 37 °C, pH 2, aqueous buffer, thermodynamic from solid, pH 2.0, 310.15 K, read-out: Solubility in pure buffer
  solubility at 3 days: 711 µM (≈ 339 µg/mL)
[2]; 37 °C, pH 2, aqueous with cosolvent or surfactant or cyclodextrin, thermodynamic from solid, Solubility SUMF·103, buffer pH 2.0, 1.5 w/v% F-127, 310.15 K, value is S×10^3, heading: Solubility SUMF·103
  solubility at 3 days: 2050 ± 40 µM (≈ 979 µg/mL)
[2]; 37 °C, pH 2, aqueous with cosolvent or surfactant or cyclodextrin, thermodynamic from solid, Solubility SUMF·103, buffer pH 2.0, 4.0 w/v% F-127, 310.15 K, value is S×10^3, heading: Solubility SUMF·103
  solubility at 3 days: 3990 ± 80 µM (≈ 1900 µg/mL)
[2]; 37 °C, pH 2, aqueous with cosolvent or surfactant or cyclodextrin, thermodynamic from solid, Solubility SUMF·103, buffer pH 2.0, 5.5 w/v% F-127, 310.15 K, value is S×10^3, heading: Solubility SUMF·103
  solubility at 3 days: 5610 ± 40 µM (≈ 2680 µg/mL)
[2]; 37 °C, pH 2, aqueous with cosolvent or surfactant or cyclodextrin, thermodynamic from solid, Solubility SUMF·103, buffer pH 2.0, 7.0 w/v% F-127, 310.15 K, value is S×10^3, heading: Solubility SUMF·103
  solubility at 3 days: 6340 ± 30 µM (≈ 3030 µg/mL)
[2]; 37 °C, pH 7.4, aqueous buffer, thermodynamic from solid, buffer pH 7.4, 0 w/v% F-127, 310.15 K, value is S×10^4, read-out: Solubility SUMF·104
  solubility at 3 days: 16 ± 0.1 µM (≈ 7.64 µg/mL)
[2]; 37 °C, pH 7.4, aqueous with cosolvent or surfactant or cyclodextrin, thermodynamic from solid, 7.0% F-127 + 20% EtOH, buffer pH 7.4, 310.15 K, read-out: Maximum solubility value
  solubility at 3 days: 1180 µM
[2]; 37 °C, pH 7.4, aqueous with cosolvent or surfactant or cyclodextrin, thermodynamic from solid, buffer pH 7.4 +10% EtOH, 0 w/v% F-127, 310.15 K, value is S×10^4, read-out: Solubility SUMF·104
  solubility at 3 days: 18 ± 0.1 µM (≈ 8.59 µg/mL)
[2]; 37 °C, pH 7.4, aqueous with cosolvent or surfactant or cyclodextrin, thermodynamic from solid, buffer pH 7.4 +10% EtOH, 1.5 w/v% F-127, 310.15 K, value is S×10^4, read-out: Solubility SUMF·104
  solubility at 3 days: 194 ± 1 µM (≈ 92.6 µg/mL)
[2]; 37 °C, pH 7.4, aqueous with cosolvent or surfactant or cyclodextrin, thermodynamic from solid, buffer pH 7.4 +10% EtOH, 4.0 w/v% F-127, 310.15 K, value is S×10^4, read-out: Solubility SUMF·104
  solubility at 3 days: 477 ± 3 µM (≈ 228 µg/mL)
[2]; 37 °C, pH 7.4, aqueous with cosolvent or surfactant or cyclodextrin, thermodynamic from solid, buffer pH 7.4 +10% EtOH, 5.5 w/v% F-127, 310.15 K, value is S×10^4, read-out: Solubility SUMF·104
  solubility at 3 days: 689 ± 7 µM (≈ 329 µg/mL)
[2]; 37 °C, pH 7.4, aqueous with cosolvent or surfactant or cyclodextrin, thermodynamic from solid, buffer pH 7.4 +10% EtOH, 7.0 w/v% F-127, 310.15 K, value is S×10^4, read-out: Solubility SUMF·104
  solubility at 3 days: 806 ± 7 µM (≈ 385 µg/mL)
[2]; 37 °C, pH 7.4, aqueous with cosolvent or surfactant or cyclodextrin, thermodynamic from solid, buffer pH 7.4 +20% EtOH, 0 w/v% F-127, 310.15 K, value is S×10^4, read-out: Solubility SUMF·104
  solubility at 3 days: 30 ± 1 µM (≈ 14.3 µg/mL)
[2]; 37 °C, pH 7.4, aqueous with cosolvent or surfactant or cyclodextrin, thermodynamic from solid, buffer pH 7.4 +20% EtOH, 1.5 w/v% F-127, 310.15 K, value is S×10^4, read-out: Solubility SUMF·104
  solubility at 3 days: 276 ± 3 µM (≈ 132 µg/mL)
[2]; 37 °C, pH 7.4, aqueous with cosolvent or surfactant or cyclodextrin, thermodynamic from solid, buffer pH 7.4 +20% EtOH, 4.0 w/v% F-127, 310.15 K, value is S×10^4, read-out: Solubility SUMF·104
  solubility at 3 days: 700 ± 5 µM (≈ 334 µg/mL)
[2]; 37 °C, pH 7.4, aqueous with cosolvent or surfactant or cyclodextrin, thermodynamic from solid, buffer pH 7.4 +20% EtOH, 5.5 w/v% F-127, 310.15 K, value is S×10^4, read-out: Solubility SUMF·104
  solubility at 3 days: 983 ± 11 µM (≈ 469 µg/mL)
[2]; 37 °C, pH 7.4, aqueous with cosolvent or surfactant or cyclodextrin, thermodynamic from solid, buffer pH 7.4, 1.5 w/v% F-127, 310.15 K, value is S×10^4, read-out: Solubility SUMF·104
  solubility at 3 days: 174 ± 3 µM (≈ 83.1 µg/mL)
[2]; 37 °C, pH 7.4, aqueous with cosolvent or surfactant or cyclodextrin, thermodynamic from solid, buffer pH 7.4, 4.0 w/v% F-127, 310.15 K, value is S×10^4, read-out: Solubility SUMF·104
  solubility at 3 days: 393 ± 3 µM (≈ 188 µg/mL)
[2]; 37 °C, pH 7.4, aqueous with cosolvent or surfactant or cyclodextrin, thermodynamic from solid, buffer pH 7.4, 5.5 w/v% F-127, 310.15 K, value is S×10^4, read-out: Solubility SUMF·104
  solubility at 3 days: 586 ± 2 µM (≈ 280 µg/mL)
[2]; 37 °C, pH 7.4, aqueous with cosolvent or surfactant or cyclodextrin, thermodynamic from solid, buffer pH 7.4, 7.0 w/v% F-127, 310.15 K, value is S×10^4, read-out: Solubility SUMF·104
  solubility at 3 days: 696 ± 4 µM (≈ 332 µg/mL)
[2]; pH 7.4, pH 7.4, 310.15 K, read-out: Solubility in pure buffer
  solubility at 3 days: 15.8 µM (≈ 7.54 µg/mL)
[2]; buffer pH 2.0, vs without F-127
  Solubility enhancement by 7.0% F-127: 8.9 fold
[2]; buffer pH 7.4 + 10% EtOH, vs without F-127
  Solubility enhancement by 7.0% F-127: 44.8 fold
[2]; buffer pH 7.4 + 20% EtOH, vs without F-127
  Solubility enhancement by 7.0% F-127: 39.3 fold
[2]; buffer pH 7.4, vs without F-127
  Solubility enhancement by 7.0% F-127: 43.5 fold
